Assay results taken from US10544130B2, “Metallo-beta-lactamase inhibitors” (priority 2015, dated 2020).
Like-named read-outs stand apart in the source and are kept apart here.

Assays:
[1] = tested on: Pseudomonas aeruginosa PAO1 MB9798 (efflux+, IMP-1); conditions: ratio MITC95 PA 9798/MITC95 PA 9799; imipenem at 2 μg/mL
Procedure, shortened: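 Isogenic PAO1 pair (efflux+ MB9798, efflux− MB9799, both IMP-1) tested by microbroth MIC with fixed imipenem and/or ceftazidime, usually at CLSI breakpoint, plus fixed class A/C inhibitor against AmpC. MBL inhibitor titrated; concentration restoring susceptibility recorded and fold difference between strains taken as efflux extent.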

[2] = tested on: Escherichia coli expressing NDM-1 (CLB30005, CLB30016); format: cell-based; conditions: with imipenem 1 μg/ml, 95% inhibition of bacterial growth
Experimental: Antibiotic Potentiation Activity: Determination of Synergistic Concentration
The bacterial strains tested included the clinical strains Escherichia coli expressing NDM-1 (CLB30005, CLB30016), Serratia marcescens expressing IMP-1 (CL5741), and Klebsiella pneumoniae expressing VIM-1 (IHMA599644). Inhibitor activity was measured in the presence and absence of imipenem in a 384-well microplate.
The clinical strains CLB30016, CL5741 and IHMA599644 were grown on trypticase soy agar containing 5% sheep's blood. The bacteria on agar plates were incubated at 35° C. with humidity overnight. The following day, individual colonies from each clinical strain were picked and resuspended in 5 ml saline to attain an OD600 of 0.14, 0.11, 0.15 and 0.13, for CLB30016, CL5741 and IHMA599644, respectively. These were further diluted 1:100 into 1.1× CAMHB and used to inoculate the test wells as described below.
Imipenem in 10 mM 3-(N-morpholino)propanesulfonic acid (MOPS, pH 7) was stored in single use aliquots at −80° C. […] On the day of the assay, 4 μl of antibiotic was added to 45 ul of bacteria followed by 1 μl of test compound and mixed by pipetting and with an orbital shaker. The concentration of antibiotic used in the assay was 1 μg/ml. Microplates were covered and incubated at 35° C. for 22 hours to 24 hours. At the end of the incubation, absorbance was determined using a spectrophotometer.

Row | SMILES | Efflux ratio [1] | Escherichia coli (NDM-1) MITC95 [2] [µM] | Escherichia coli (NDM-1) MITC95 ([2]; CLB30016) [µM]
1 | Nc1nc2c(-c3ccc(S(=O)(=O)NC4CCNCC4)c(S(N)(=O)=O)c3-c3nn[nH]n3)cccc2[nH]1 [Example 260, 4-(2-amino-1H-benzo[d]imidazol-4-yl)-N1-(piperidin-4-yl)-3-(1H-tetrazol-5-yl)benzene-1,2-disuffonamide] | 1.00 | 0.7813 | –
2 | CC[C@@H](CN)NS(=O)(=O)c1ccc(-c2cccc3[nH]c(N)nc23)c(-c2nn[nH]n2)c1S(N)(=O)=O [Example 264, (S)-4-(2-amino-1H-benzo[d]imidazol-4-yl)-N1-(1-aminobutan-2-yl)-3-(2H-tetrazol-5-yl)benzene-1,2-disulfonamide] | 4.00 | 0.7813 | –
3 | C[C@@H](CCN)NS(=O)(=O)c1ccc(-c2cccc3[nH]c(N)nc23)c(-c2nn[nH]n2)c1S(N)(=O)=O [Example 267, (S)-4-(2-amino-1H-benzo[d]imidazol-4-yl)-N1-(4-aminobutan-2-yl)-3-(2H-tetrazol-5-yl)benzene-1,2-disulfonamide] | 1.00 | 0.7813 | –
4 | NCCN1CC[C@H](NS(=O)(=O)c2ccc(-c3cccc4[nH]c(N)nc34)c(-c3nn[nH]n3)c2S(N)(=O)=O)C1 [Example 268, (S)-4-(2-amino-1H-benzo[d]imidazol-4-yl)-N1-(1-(2-aminoethyl)pyrrolidin-3-yl)-3-(2H-tetrazol-5-yl)benzene-1,2-disulfonamide] | 1.00 | 0.7813 | –
5 | NCC(=O)NC1CCC[C@@H](c2ccc(S(=O)(=O)N[C@@H]3CCNC3)c(S(N)(=O)=O)c2-c2nn[nH]n2)C1 (stereo partly drawn) [Example 270, 2-Amino-N-((3R)-3-(4-(N—((R)-pyrrolidin-3-yl)sulfamoyl)-3-sulfamoyl-2-(2H-tetrazol-5-yl)phenyl)cyclohexyl)acetamide] | 1.00 | 1.563 | –
6 | C[C@@H](N)c1nc2c(-c3ccc(S(=O)(=O)N[C@@H]4CCNC4)c(S(N)(=O)=O)c3-c3nn[nH]n3)cccc2[nH]1 [Example 273, 4-(2-((R)-1-aminoethyl)-1H-benzo[d]imidazol-4-yl)-N1-((R)-pyrrolidin-3-yl)-3-(2H-tetrazol-5-yl)benzene-1,2-disulfonamide] | 1.00 | 1.563 | –
7 | NCc1nc2cc(-c3ccc(S(=O)(=O)N[C@@H]4CCNC4)c(S(N)(=O)=O)c3-c3nn[nH]n3)ccc2[nH]1 [Example 274, (R)-4-(2-(aminomethyl)-1H-benzo[d]imidazol-5-yl)-N1-(pyrrolidin-3-yl)-3-(2H-tetrazol-5-yl)benzene-1,2-disulfonamide] | 1.00 | 0.7813 | –
8 | Nc1cccc(-c2ccc(S(=O)(=O)N[C@@H]3CCNC3)c(S(N)(=O)=O)c2-c2nn[nH]n2)n1 [Example 277, (R)-4-(6-aminopyridin-2-yl)-N1-(pyrrolidin-3-yl)-3-(2H-tetrazol-5-yl)benzene-1,2-disulfonamide] | 1.00 | 0.7813 | –
9 | NCc1nc2c(-c3ccc(S(=O)(=O)N[C@@H]4CCNC4)c(S(N)(=O)=O)c3-c3nn[nH]n3)cccc2[nH]1 [Example 283, (R)-4-(2-(aminomethyl)-1H-benzo[d]imidazol-4-yl)-N1-(pyrrolidin-3-yl)-3-(2H-tetrazol-5-yl)benzene-1,2-disulfonamide] | 1.00 | 0.7813 | –
10 | NS(=O)(=O)c1c(S(=O)(=O)N[C@@H]2CCNC2)ccc(-c2cccn3ccnc23)c1-c1nn[nH]n1 [Example 291, (R)-4-(imidazo[1,2-a]pyridin-8-yl)-N1-(pyrrolidin-3-yl)-3-(2H-tetrazol-5-yl)benzene-1,2-disulfonamide] | 1.00 | 0.7813 | –
11 | NC(=O)c1nc2c(-c3ccc(S(=O)(=O)N[C@H]4CCNC4)c(S(N)(=O)=O)c3-c3nn[nH]n3)cccc2[nH]1 [Example 292, (S)-4-(4-(N-(pyrrolidin-3-yl)sulfamoyl)-3-sulfamoyl-2-(2H-tetrazol-5-yl)phenyl)-1H-benzo[d]imidazole-2-carboxamide] | 0.50 | 1.563 | –
12 | NCc1nc2c(-c3ccc(S(=O)(=O)NC[C@H](O)CN)c(S(N)(=O)=O)c3-c3nn[nH]n3)cccc2[nH]1 [Example 299, (R)—N1-(3-amino-2-hydroxypropyl)-4-(2-(aminomethyl)-1H-benzo[d]imidazol-4-yl)-3-(2H-tetrazol-5-yl)benzene-1,2-disulfonamide] | 1.00 | 0.7813 | –
13 | Nc1nc2c(-c3ccc(S(=O)(=O)NC[C@H]4CNCCN4)c(S(N)(=O)=O)c3-c3nn[nH]n3)cccc2[nH]1 [Example 314, (R)-4-(2-amino-1H-benzo[d]imidazol-4-yl)-N1-(piperazin-2-ylmethyl)-3-(2H-tetrazol-5-yl)benzene-1,2-disulfonamide] | 1.00 | 0.7813 | –
14 | NCCNS(=O)(=O)c1ccc(-c2cccc3[nH]c([C@@H]4C[C@@H](O)CN4)nc23)c(-c2nn[nH]n2)c1S(N)(=O)=O [Example 444, N1-(2-aminoethyl)-4-(2-((2S,4R)-4-hydroxypyrrolidin-2-yl)-1H-benzo[d]imidazol-4-yl)-3-(2H-tetrazol-5-yl)benzene-1,2-disulfonamide] | – | 1.563 | –
15 | NCCNS(=O)(=O)c1ccc(-c2cccc3c2CCCN3)c(-c2nn[nH]n2)c1S(N)(=O)=O [Example 455, N1-(2-Aminoethyl)-4-(1,2,3,4-tetrahydroquinolin-5-yl)-3-(2H-tetrazol-5-yl)benzene-1,2-disulfonamide] | – | 1.563 | –
16 | NCCNc1cc(-c2ccc(S(=O)(=O)NCCO)c(S(N)(=O)=O)c2-c2nn[nH]n2)ccn1 [Example 457, 4-(2-((2-aminoethyl)amino)pyridin-4-yl)-N1-(2-hydroxyethyl)-3-(2H-tetrazol-5-yl)benzene-1,2-disulfonamide] | – | 1.563 | –
17 | NCCNc1cc(-c2ccc(S(=O)(=O)N[C@@H]3CCNC3)c(S(N)(=O)=O)c2-c2nn[nH]n2)ccn1 [Example 458, (R)-4-(2-((2-aminoethyl)amino)pyridin-4-yl)-N1-(pyrrolidin-3-yl)-3-(2H-tetrazol-5-yl)benzene-1,2-disulfonamide] | – | 0.7813 | –
18 | NCc1nc2cc(-c3ccc(S(=O)(=O)NC[C@H](O)CN)c(S(N)(=O)=O)c3-c3nn[nH]n3)ccc2[nH]1 [Example 464, (R)—N1-(3-amino-2-hydroxypropyl)-4-(2-(aminomethyl)-1H-benzo[d]imidazole-5-yl)-3-(2H-tetrazol-5-yl)benzene-1,2-disulfonamide] | – | 0.7813 | –
19 | NCc1nc2cc(-c3ccc(S(=O)(=O)NC[C@@H](O)CN)c(S(N)(=O)=O)c3-c3nn[nH]n3)ccc2[nH]1 [Example 465, (S)-N1-(3-amino-2-hydroxypropyl)-4-(2-(aminomethyl)-1H-benzo[d]imidazol-5-yl)-3-(2H-tetrazol-5-yl)benzene-1,2-disulfonamide] | – | 0.7813 | –
20 | NCCNS(=O)(=O)c1ccc(-c2ccc3[nH]c(CN)nc3c2)c(-c2nn[nH]n2)c1S(N)(=O)=O [Example 466, N1-(2-aminoethyl)-4-(2-(aminomethyl)-1H-benzo[d]imidazol-5-yl)-3-(2H-tetrazol-5-yl)benzene-1,2-disulfonamide] | – | 0.7813 | –
21 | NCc1nc2cc(-c3ccc(S(=O)(=O)NC[C@@H](O)CN)c(S(N)(=O)=O)c3-c3nn[nH]n3)ccc2s1 [Example 473, (S)-N1-(3-amino-2-hydroxypropyl)-4-(2-(aminomethyl)benzo[d]thiazol-5-yl)-3-(2H-tetrazol-5-yl)benzene-1,2-disulfonamide] | – | 0.7813 | –
22 | NCc1nc2cc(-c3ccc(S(=O)(=O)N[C@@H](CN)CO)c(S(N)(=O)=O)c3-c3nn[nH]n3)ccc2[nH]1 [Example 474, (S)-N1-(1-amino-3-hydroxypropan-2-yl)-4-(2-(aminomethyl)-1H-benzo[d]imidazol-5-yl)-3-(2H-tetrazol-5-yl)benzene-1,2-disulfonamide] | – | 0.7813 | –
23 | NCc1nc2cc(-c3ccc(S(=O)(=O)N[C@@H](CN)CO)c(S(N)(=O)=O)c3-c3nn[nH]n3)ccc2s1 [Example 475, (S)-N1-(1-amino-3-hydroxypropan-2-yl)-4-(2-(aminomethyl)benzo[d]thiazol-5-yl)-3-(2H-tetrazol-5-yl)benzene-1,2-disulfonamide] | – | 0.7813 | –
24 | C[C@@H](CCN)NS(=O)(=O)c1ccc(-c2ccc(N)nc2)c(-c2nn[nH]n2)c1S(N)(=O)=O [Example 499, (5)-N1-(4-aminobutan-2-yl)-4-(6-aminopyridin-3-yl)-3-(1H-tetrazol-5-yl)benzene-1,2-disulfonamide] | – | – | 0.7813
